Data set [1] in a line: Storage stability: HPLC purity. It is filed as physicochemical.
Data set [2] can be described thus: Storage stability: polymorph integrity by PXRD. It counts as physicochemical. On the procedure: The crystalline forms of bictegravir disclosed herein may be characterized by X-ray powder diffraction pattern (PXRD). Samples of each polymorph were analyzed on a BRUKER D-8 Discover powder diffractometer equipped with goniometer of θ/2θ configuration and Lynx Eye detector. The Cu-anode X-ray tube was operated at 40 kV and 30 mA. The experiments were conducted over the 2θ range of 2.0°-50.0°, 0.030° step size and 0.4 seconds step time. […] The samples were analyzed by PXRD for polymorph integrity.

[3] abbreviates: at 25° C./60% RH, 6 months, listed as crystalline bictegravir Form M1.
Where [4] appears, read: at 40° C./75% RH, 6 months, listed as crystalline bictegravir Form M1.
The mark [5] stands for this setting: at 25° C./60% RH, 6 months, listed as Form M2.
The mark [6] stands for this setting: at 40° C./75% RH, 6 months, listed as Form M2.
Setting [7] is: at 25° C./60% RH, 6 months, listed as amorphous bictegravir sodium.
Where [8] appears, read: at 40° C./75% RH, 6 months, listed as amorphous bictegravir sodium.

As for `O=C(NCc1c(F)cc(F)cc1F)c1cn2c(c(O)c1=O)C(=O)N1[C@H]3CC[C@H](C3)O[C@@H]1C2` [Bictegravir Form M1, bictegravir], the HPLC purity in data set [1] (at 25° C./60% RH, 1 months) was 99.68; in data set [1] (at 25° C./60% RH, 2 months), 99.67; in data set [1] (at 25° C./60% RH, 3 months), 99.73; in data set [1] (at 25° C./60% RH, 6 months), 99.73; in data set [1] (setting [3]) it was “no change”; in data set [1] (at 25° C./60% RH, Initial), 99.66. In addition, the HPLC purity was 99.67 in data set [1] (at 40° C./75% RH, 1 months); 99.69 in data set [1] (at 40° C./75% RH, 2 months); 99.80 in data set [1] (at 40° C./75% RH, 3 months); 99.78 in data set [1] (at 40° C./75% RH, 6 months); “no change” in data set [1] (setting [4]); 99.66 in data set [1] (at 40° C./75% RH, Initial). In addition, the PXRD result is on record as “Stable” in data set [2] (at 25° C./60% RH, 1 months); “Stable” in data set [2] (at 25° C./60% RH, 2 months); “Stable” in data set [2] (at 25° C./60% RH, 3 months); “Stable” in data set [2] (at 25° C./60% RH, 6 months); “no change” in data set [2] (setting [3]); “Crystalline” in data set [2] (at 25° C./60% RH, Initial). The PXRD result in data set [2] (at 40° C./75% RH, 1 months) is given as “Stable”; in data set [2] (at 40° C./75% RH, 2 months), “Stable”; in data set [2] (at 40° C./75% RH, 3 months), “Stable”; in data set [2] (at 40° C./75% RH, 6 months), “Stable”; in data set [2] (setting [4]), “no change”; in data set [2] (at 40° C./75% RH, Initial) it was “Crystalline”.
On to `O=C(NCc1c(F)cc(F)cc1F)c1cn2c(c(O)c1=O)C(=O)N1[C@H]3CC[C@H](C3)O[C@@H]1C2` [Bictegravir Form M2, bictegravir], for which the HPLC purity in data set [1] (at 25° C./60% RH, 1 months) is on record as 99.68; in data set [1] (at 25° C./60% RH, 2 months) it was 99.67; in data set [1] (at 25° C./60% RH, 3 months), 99.73; in data set [1] (at 25° C./60% RH, 6 months), 99.73; in data set [1] (setting [5]) it was “no change”; in data set [1] (at 25° C./60% RH, Initial), 99.68. In addition, the HPLC purity in data set [1] (at 40° C./75% RH, 1 months) was 99.67; in data set [1] (at 40° C./75% RH, 2 months), 99.69; in data set [1] (at 40° C./75% RH, 3 months), 99.73; in data set [1] (at 40° C./75% RH, 6 months), 99.71; in data set [1] (setting [6]), “no change”; in data set [1] (at 40° C./75% RH, Initial) it was 99.68. The PXRD entry is on record as “Stable” in data set [2] (at 25° C./60% RH, 1 months); “Stable” in data set [2] (at 25° C./60% RH, 2 months); “Stable” in data set [2] (at 25° C./60% RH, 3 months); “Stable” in data set [2] (at 25° C./60% RH, 6 months); “no change” in data set [2] (setting [5]); “Crystalline” in data set [2] (at 25° C./60% RH, Initial). Also, the PXRD entry in data set [2] (at 40° C./75% RH, 1 months) is given as “Stable”; in data set [2] (at 40° C./75% RH, 2 months), “Stable”; in data set [2] (at 40° C./75% RH, 3 months) it was “Stable”; in data set [2] (at 40° C./75% RH, 6 months), “Stable”; in data set [2] (setting [6]), “no change”; in data set [2] (at 40° C./75% RH, Initial), “Crystalline”.
Take `O=C(NCc1c(F)cc(F)cc1F)c1cn2c(c([O-])c1=O)C(=O)N1[C@@H]3CC[C@@H](C3)O[C@H]1C2.[Na+]` [Bictegravir Sodium Amorphous form, (2R,5S,13aR)-2,5-Methanopyrido[1′,2′:4,5]pyrazino[2,1-b][1,3]oxazepine-10-carboxamide, 2,3,4,5,7,9, 13,13a-octahydro-8-hydroxy-7,9-dioxo-N-[(2,4,6-trifluorophenyl)methyl]-, sodium salt (1:1)]: the HPLC purity in data set [1] (at 25° C./60% RH, 1 months) was 99.68; in data set [1] (at 25° C./60% RH, 2 months), 99.52; in data set [1] (at 25° C./60% RH, 3 months), 99.54; in data set [1] (at 25° C./60% RH, 6 months), 99.46; in data set [1] (setting [7]) it was “no change”; in data set [1] (at 25° C./60% RH, Initial), 99.48. Moreover, the HPLC purity in data set [1] (at 40° C./75% RH, 1 months) is 99.68; in data set [1] (at 40° C./75% RH, 2 months), 99.54; in data set [1] (at 40° C./75% RH, 3 months), 99.48; in data set [1] (at 40° C./75% RH, 6 months) it was 99.31; in data set [1] (setting [8]), “no change”; in data set [1] (at 40° C./75% RH, Initial) it was 99.48. The PXRD entry in data set [2] (at 25° C./60% RH, 1 months) is recorded as “Stable”; in data set [2] (at 25° C./60% RH, 2 months), “Stable”; in data set [2] (at 25° C./60% RH, 3 months), “Stable”; in data set [2] (at 25° C./60% RH, 6 months), “Stable”; in data set [2] (setting [7]), “no change”; in data set [2] (at 25° C./60% RH, Initial), “Amorphous”. The PXRD result is “Stable” in data set [2] (at 40° C./75% RH, 1 months); “Stable” in data set [2] (at 40° C./75% RH, 2 months); “Stable” in data set [2] (at 40° C./75% RH, 3 months); “Stable” in data set [2] (at 40° C./75% RH, 6 months); “no change” in data set [2] (setting [8]); “Amorphous” in data set [2] (at 40° C./75% RH, Initial).

These data come from US11466031B2, “Polymorphic forms of bictegravir and its sodium salt” (Mylan Laboratories Limited, priority 2018, dated 2022).
